Source: patent publication EP0297435A2, “Aminopropanol derivatives of 3-(3'-hydroxyphenyl)-1-propanone, process for their preparation and medicines containing these compounds” (Helopharm W. Petrik GmbH & Co.KG., priority 1987, dated 1989)

Tests used:
[1] = tested on: Purkinje-Fasern aus Hundeherzen; assay: Electrophysiological studies on Purkinje fibres from dog hearts (Vmax); type: cell-based, Hund
Source text: Die antiarrhythmische Wirksamkeit der erfindungsgemäßen Verbindungen wurde sowohl anhand von elektrophysiologischen Studien an Purkinje-Fasern aus Hundeherzen sowie mit Hilfe von Ouabaininduzierten ventrikulären Tachykardien bei Hunden bestimmt. […]
Als zusätzliches Kriterium wurde der Vorzeitigkeitsindex (Prematurity-Faktor) bestimmt, der die erwünschte Wirksamkeit der erfindungsgemäßen Verbindungen bei vorzeitigen Extrasystolen charakterisiert.

[2] = Acute toxicity LD50 in mice, i.v.; conditions: mouse, in vivo, iv; Maus (i.v.); read-out: LD₅₀
[3] = tested on: Meerschweinchen-Papillarmuskel; assay: Effect on contraction force of the heart, guinea pig papillary muscle; type: cell-based; conditions: contraction force (negative inotropy), read-out: C20 CF
Source text: Die Wirkung auf die Kontraktionskraft des Herzens wurde am Meerschweinchen-Papillarmuskel untersucht. Hämodynamische Studien wurden bei gesunden, wie auch akut infarzierten Hunden durchgeführt.

[4] = Acute toxicity LD50 in rats, i.v.; conditions: rat, in vivo, iv; Ratte (i.v.); read-out: LD₅₀

CCC(C)(C)NCC(O)COc1cc(CCC(=O)c2ccc(C)cc2)ccc1OC.Cl (stereo not drawn) [Beispiel 36, 1-(4-Methylphenyl)-3-[3′-(2-hydroxy-3-tert.-pentylaminopropoxy)-4′-methoxyphenyl]-1-propanon-hydrochlorid]
IC20 ([1]; Purkinje-Fasern aus Hundeherzen, read-out: C20 Vmax): 2.8 µM | Prematurity Faktor Vmax ([1]; Vorzeitigkeitsindex, activity on premature extrasystoles): 0,99 | Rate-Faktor von Vmax ([1]; specifically stronger activity at higher frequencies): 1,41 | LD50 [2]: 18 mg/kg | IC20 [3]: 8 µM | LD50 [4]: 10 mg/kg
